How the values were obtained:
[1] = system: Mouse cortical cell cultures; experiment: NMDA-induced excitotoxicity in mixed cortical cell cultures (LDH release); format: cell-based; conditions: 300 μM NMDA for 10 min, co-treatment; LDH release 24 hr later
Description: (§1) Mouse cortical cell cultures (DIV 12-14) were exposed to 300 μM NMDA for 10 min, alone or with inclusion of 3-300 μM 2-Hydroxy-TTBA. Neuronal death was analyzed 24 hr later by measuring levels of LDH released into the bathing medium, mean ±SEM (n=9-12 culture wells per condition), scaled to mean LDH efflux value 24 hr after sham wash (=0) and continuous exposure to 500 μM NMDA (=100) that causes near complete neuronal death. *, Significant difference from the vehicle control, p<0.05 using ANOVA and Student-Neuman-Keuls' test.
as §1, with “alone (□)” for “alone”, “2-Hydroxy-TTS (●), 2-Hydroxy-TTA (◯), 2-Ethan-TTBA (▾), 2-Propan-TTBA (∇), or 2-Cyclohexan-TTBA (▪).” for “2-Hydroxy-TTBA.”, “(=100).” for “(=100) that causes near complete neuronal death.”
For mixed neuron-glia culture, mouse cerebral cortices were removed from brains of the 14-16 day-old-fetal mice (E14-16), gently triturated and plated on 24 well plates (2×10^5 cells/plate) precoated with 100 μg/ml poly-D-lysine and 4 μg/ml laminine. […]

[2] = system: Sprague-dawley rats, four-vessel occlusion; experiment: CA1 neuronal cell death after transient forebrain ischemia; format: in vivo, rat; conditions: 50 mg/kg ip; 10 min four-vessel occlusion; analyzed 3 d later
Description: Adult rats received transient global ischemia for 10 min, with intraperitoneal injections of vehicle (control) or 2-Hydroxy-TTBA (50 mg/kg) at 5 min after reperfusion. The number of degenerating neurons in the CA1 was analyzed 3 d later by counting viable neurons after staining with cresyl violet, mean ±S.E.M. *, Significant difference from the vehicle control, p<0.05 using the independent t-test.
(§2) Male adult Sprague-dawley rats (250-300 g) were anesthetized with chloral hydrate and subjected to four-vessel occlusion model (occlusion of both common carotid arteries and vertebral arteries) as previously described [Pulsinelli and Brierley, stroke 10: 267-272 (1979)].
Rats received four-vessel occlusion for 10 min followed by administration of saline (control) or 2-Hydroxy-TTBA (50 mg/kg, ip). Animals were euthanized 3 d later and processed for analysis of neuronal death in the CA1 field after staining with hematoxylin and eosin(mean ±SEM, N=12 rats/condition).

[3] = system: Sprague-dawley rats, four-vessel occlusion; experiment: Mitochondrial ROS generation after transient global ischemia (four-vessel occlusion); format: in vivo, rat; conditions: 50 mg/kg i.p. after reperfusion; 10 min four-vessel occlusion; analyzed 2 hr later
Description: Mitotracker CM-H2X ROS was injected into the lateral ventricle of rat brain at 24 hr before ischemic surgery, and then animals received transient forebrain ischemia for 10 min, with intraperitoneal injections of vehicle (control) or 2-Hydroxy-TTBA (50 mg/kg) at 5 min after reperfusion. The levels of mitochondrial ROS were analyzed 2 hr later, mean ±S.E.M. (n=50-70 neurons randomly chosen from the CA1 sector of the hippocampal formation per each condition). *, Significant difference from the vehicle control, p<0.05 using the independent t-test.
as §2
Rats received the intracerebroventricular injections of 0.4 nmol Mitotracker CM-H2X Ros. After 24 hr, rats received four-vessel occlusion for 10 min. Immediately after reperfusion, rats received the intraperitoneal injections of saline (control) or 2-Hydroxy-TTBA (50 mg/kg). Levels of mitochondrial ROS were analyzed 2 hr later by measuring the fluorescence intensity of oxidized Mitotracker CM-H2X Ros in mitochondria.

[4] = system: Mouse cortical cell cultures; experiment: FeCl2-induced free radical neurotoxicity in mixed cortical cell cultures (LDH assay); format: cell-based; conditions: continuous 50 μM FeCl2; LDH 24 hr later
Description: as §1, with “continuously to 50” for “300”, “Fe^2+,” for “NMDA for 10 min,”, “0.1-100” for “3-300”, “2-Hydroxy-TTBA (●) or trolox (◯), a membrane-permeable form of vitamin E).” for “2-Hydroxy-TTBA.”, “(=100).” for “(=100) that causes near complete neuronal death.”
as §1, with “continuously to 50” for “300”, “Fe^2+,” for “NMDA for 10 min,”, “alone (♦)” for “alone”, “1-30” for “3-300”, “2-Hydroxy-TTS (●), 2-Hydroxy-TTA (◯), 2-Chloro-TTP (▾), 2-Ethan-TTBA (∇), 2-Propan-TTBA (▪), or 2-Cyclohexan-TTBA (□).” for “2-Hydroxy-TTBA.”, “(=100).” for “(=100) that causes near complete neuronal death.”
For mixed neuron-glia culture, mouse cerebral cortices were removed from brains of the 14-16 day-old-fetal mice (E14-16), gently triturated and plated on 24 well plates (2×10^5 cells/plate) precoated with 100 μg/ml poly-D-lysine and 4 μg/ml laminine. Cultures were maintained at 37° C. in a humidified 5% CO2 atmosphere. Plating media consist of Eagles minimal essential media (MEM, Earles salts, supplied glutamine-free) supplemented with 5% horse serum, 5% fetal bovine serum, 26.5 mM bicarbonate, 2 mM glutamine, and 21 mM glucose.
After 7-8 days in vitro (DIV 7-8), 10 μM cytosine arabinofuranoside (Ara-C) was included to halt overgrowth of glia. The drug treatment was carried on DIV 12-15 cortical cell culture. Overall neuronal cell injury was assessed by measuring amount of lactate dehydrogenase (LDH) released into the bathing medium 24 hr after neurotoxic insults as previously described [Koh and Choi, J Neurosci Methods 20:83-90, 1987].
Mixed cortical cell cultures (DIV 13-15) were continuously exposed to 50 μM FeCl2, which produces hydroxyl radical via a Fenton reaction, alone or with inclusion of 2-Hydroxy-TTBA, 2-Hydroxy-TTA, 2-Hydroxy-TTS, 2-Chloro-TTP, 2-Ethan-TTBA, 2-Propan-TTBA, 2-Cyclohexan-TTBA or trolox (a vitamin E analogue) at indicated doses. Neuronal cell death was analyzed 24 hr later by LDH assay as described above. *, Significant difference from the vehicle control (FeCl2), p<0.05 using ANOVA and Student-Neuman-Keuls' test.

SMILES: O=C(O)c1cc(NCc2c(F)c(F)c(C(F)(F)F)c(F)c2F)ccc1O [2-Hydroxy-TTBA, 2-hydroxy-5-(2,3,5,6-tetrafluoro-4-trifluoromethylbenzylamino)benzoic acid]
- doses at which NMDA-induced neuronal death was blocked/prevented [1]: 10 to 300 µM
- delayed neuronal cell death in the CA1 areas [2]: prevented delayed neuronal cell death
- production of mitochondrial ROS after transient global ischemia [3]: reduced production of mitochondrial ROS
- prevention of FeCl2-induced free radical neurotoxicity [4]: prevented FeCl2-induced free radical neurotoxicity in a dose-dependent manner
- strength relative to trolox in preventing free radical neurotoxicity [4]: 30 fold
